Reference: patent US20220364989A1, “METHOD FOR MEASURING PHOTOTOXICITY OR PHOTOALLERGY AND REAGENT FOR USE THEREIN” (FUJIFILM Corporation, priority 2018, published 2022)
Where two headings read alike, the source gives them in different places.

Experiments:
[1] = 24 h, 0.25 mmol/L, pH 8
[2] = 24 h, 0.25 mmol/L, pH 10.2
[3] = cited from earlier work
[4] = cited from earlier work; remark: listed apart in the source
[5] = 24 h, 0.25 mmol/L
[6] = 24 h, 0.25 mmol/L, pH 8; remark: listed apart in the source
[7] = 24 h, 0.25 mmol/L, pH 10.2; remark: listed apart in the source

In the case of `CCCCC(CC)COC(=O)c1ccc(N(C)C)cc1` (centres unmarked) [No. 19, 2-ethylhexyl p-dimethylaminobenzoate], the “NAC Depletion (%)” value [1] is given as 98.1%, the “NAL Depletion (%)” value [2] is given as 1.3% and the In vivo phototoxicity ([3]; in vivo) is given as “Negative”. For the same compound, the In vivo photoallergy ([4]; in vivo) was “Positive”.
In the case of `Oc1ccc(Cl)cc1Cc1cc(Cl)ccc1O` [No. 21, Dichlorophen], the “NAC Depletion (%)” value [1] is reported as 98.5%, the “NAL Depletion (%)” value [2] is reported as 14.5% and the “Average score (%)” value [5] is reported as 56.5%. For the same compound, the In vivo photoallergy ([4]; in vivo) was “Positive”.
With `Cc1ccc2oc(=O)ccc2c1` [compound 2, 6-Methylcoumarin] the “Difference in depletion (under light irradiation - without light irradiation) NAC (%)” value [6] was 95.8%, the “NAC Depletion (%) under light irradiation” value [6] was 96.3% and the “NAC Depletion (%) without light irradiation” value [6] was 0.5%. The “Difference in depletion (under light irradiation - without light irradiation) NAL (%)” value [7] was 5.5%, the “NAL Depletion (%) under light irradiation” value [7] was 5.7% and the “NAL Depletion (%) without light irradiation” value [7] was 0.2%. For the same compound, the In vivo phototoxicity ([3]; reported in References 1 to 3) was “Positive” and the In vivo photoallergy ([4]; reported in References 1 and 2) was “Positive”.
For `Nc1ccc(S(N)(=O)=O)cc1` [compound 27, Sulfanilamide], the “Difference in depletion (under light irradiation - without light irradiation) NAC (%)” value [6] was 25.5%, the “NAC Depletion (%) under light irradiation” value [6] was 26.1% and the “NAC Depletion (%) without light irradiation” value [6] was 0.6%. The “Difference in depletion (under light irradiation - without light irradiation) NAL (%)” value [7] was −0.2%, the “NAL Depletion (%) under light irradiation” value [7] was 0.0% and the “NAL Depletion (%) without light irradiation” value [7] was 0.2%. For the same compound, the In vivo photoallergy ([4]; reported in References 1 and 2) was “Positive”.
With `CCOc1ccc2c(C)cc(=O)oc2c1` [compound 29, 4-Methyl-7-ethoxycoumarin] the “Difference in depletion (under light irradiation - without light irradiation) NAC (%)” value [6] was 93.6%, the “NAC Depletion (%) under light irradiation” value [6] was 93.6% and the “NAC Depletion (%) without light irradiation” value [6] was 0.0%. For the same compound, the “Difference in depletion (under light irradiation - without light irradiation) NAL (%)” value [7] was 19.3%, the “NAL Depletion (%) under light irradiation” value [7] was 20.3% and the “NAL Depletion (%) without light irradiation” value [7] was 1.0%. The In vivo photoallergy ([4]; reported in References 1 and 2) was “Positive”.
In the case of `CC(=O)c1ccc2ccccc2c1` [compound 37, Methyl β-naphthyl ketone], the “Difference in depletion (under light irradiation - without light irradiation) NAC (%)” value [6] is reported as 99.4%, the “NAC Depletion (%) under light irradiation” value [6] is reported as 100.0% and the “NAC Depletion (%) without light irradiation” value [6] is reported as 0.6%. The “Difference in depletion (under light irradiation - without light irradiation) NAL (%)” value [7] was 6.9%, the “NAL Depletion (%) under light irradiation” value [7] was 8.4% and the “NAL Depletion (%) without light irradiation” value [7] was 1.5%.
With `CCCCCCCCCCCCCCCCO` [compound 49, Cetyl alcohol] the “Difference in depletion (under light irradiation - without light irradiation) NAC (%)” value [6] was 3.7%, the “NAC Depletion (%) under light irradiation” value [6] was 5.5% and the “NAC Depletion (%) without light irradiation” value [6] was 1.8%. The “Difference in depletion (under light irradiation - without light irradiation) NAL (%)” value [7] was 3.3%, the “NAL Depletion (%) under light irradiation” value [7] was 6.1% and the “NAL Depletion (%) without light irradiation” value [7] was 2.8%. For the same compound, the In vivo phototoxicity ([3]; reported in References 1 to 3) was “Negative” and the In vivo photoallergy ([4]; reported in References 1 and 2) was “Negative”.
